Read-outs that look alike come from different tables or passages of the source.

Common to all, as to assay type: in vivo
Assay [1] concerns Tetranychus urticae. The experiment in a line: Tetranychus urticae spray test, OP-resistant (French bean leaf disks). The procedure: (§1) • The expected efficacy of a given combination of two compounds is calculated as follows (see Colby, S. R., “Calculating Synergistic and antagonistic Responses of Herbicide Combinations”, Weeds 15, pp. 20-22, 1967): • If • X is the efficacy expressed in % mortality of the untreated control for test compound A at a concentration of m ppm respectively m g/ha, • Y is the efficacy expressed in % mortality of the untreated control for test compound B at a concentration of n ppm respectively n g/ha, • E is the efficacy expressed in % mortality of the untreated control using the mixture of A and B at m and n ppm respectively m and n g/ha, • then is
(§2) [formula] • If the observed insecticidal efficacy of the combination is higher than the one calculated as “E”, then the combination of the two compounds is more than additive, i.e. there is a synergistic effect.
Tetranychus urticae—Spray Test OP-Resistant
(§3) • Solvent: 78.0 parts by weight acetone 1.5 parts by weight dimethylformamide • Emulsifier: alkylarylpolyglycol ether
(§4) To produce a suitable preparation of active compound, 1 part by weight of active compound is mixed with the stated amount of solvents and is diluted with water, containing an emulsifier concentration of 1000 ppm, to the desired concentration. To produce a suitable preparation of a spore suspension the spores are diluted with emulsifier containing water to the desired concentration. Further test concentrations are prepared by dilution with emulsifier containing water.
French bean (Phaseolus vulgaris) leaf disks infected with all instars of the two spotted spidermite (Tetranychus urticae), are sprayed with a preparation of the active ingredient of the desired concentration.
After the specified period of time, mortality in % is determined. 100% means all spider mites have been killed and 0% means none of the spider mites have been killed. The mortality values determined thus are recalculated using the Colby-formula (see above).

Another assay relates to Meloidogyne incognita. The experiment in a line: Meloidogyne incognita test (gall formation on salad roots). Conditions: nematicidal activity on the basis of gall formation. How it is done:
as §1, §2
Meloidogyne incognita—Test
Solvent: 125.0 parts by weight of acetone
To produce a suitable preparation of active compound, 1 part by weight of active compound is mixed with the stated amount of solvent, and the concentrate is diluted with water to the desired concentration. To produce a suitable preparation of a spore suspension the spores are diluted with water to the desired concentration.
Vessels are filled with sand, a solution of the active ingredient, a suspension containing eggs and larvae of the southern root-knot nematode (Meloidogyne incognita) and salad seeds. The salad seeds germinate and the seedlings grow. Galls develop in the roots.
After the specified period of time nematicidal activity is determined on the basis of the percentage of gall formation. 100% means no galls were found and 0% means the number of galls found on the roots of the treated plants was equal to that in untreated control plants.

Assay [2] concerns Tetranychus urticae. Description: Tetranychus urticae spray test; OP-resistant (bean plants). To be noted: mortality. How it is done: as §1, §2
Tetranychus urticae Spray Test; OP-Resistant
Solvent: 7 parts by weight of dimethylformamide
Emulsifier: alkylaryl polyglycol ether
To produce a suitable preparation of active compound, 1 part by weight of active compound is mixed with the stated amount of solvent and is diluted with water, containing an emulsifier concentration of 1000 ppm, to the desired concentration. Further test concentrations are prepared by dilution with emulsifier containing water.
Bean plants (Phaseolus vulgaris) which are heavily infested with all stages of the two-spotted spider mite (Tetranychus urticae) are treated by being sprayed with the preparation of the active compound of the desired concentration.
After the specified period of time mortality in % is determined. 100% means all the spider mites have been killed and 0% means none of the spider mites have been killed. The mortality values determined thus are recalculated using the Colby-formula (see above).

For the next assay, the system named is Myzus persicae. The experiment in a line: Myzus persicae spray test (Chinese cabbage leaf disks). Conditions: mortality. The procedure: as §1, §2
Myzus persicae Spray Test
as §3, §4
Chinese cabbage (Brassica pekinensis) leaf disks infected with all instars of the green peach aphid (Myzus persicae), are sprayed with a preparation of the active ingredient of the desired concentration.
After the specified period of time, mortality in % is determined. 100% means all aphids have been killed; 0% means none of the aphids have been killed. The mortality values determined thus are recalculated using the Colby-formula (see above).

[3] abbreviates: Tetranychus urticae, foliar, 144 h, 0.5 g ai/ha, mortality, 6 days, read-out: Efficacy in % after 6 days.
Where [4] appears, read: Tetranychus urticae, foliar, 144 h, read-out: Efficacy in % after 6 days.
The mark [5] stands for this setting: Tetranychus urticae, foliar, 144 h, 0.6 g ai/ha, mortality, 6 days, read-out: Efficacy in % after 6 days.

Regarding milbemectin, the “Efficacy in % after 6 days” value amounted to 0% with Tetranychus urticae [1] (0.75 g ai/ha, mortality, 6 days) and 0% with Tetranychus urticae [1] (1.5 g ai/ha, mortality, 6 days).

Regarding `Cc1ccc(-c2ccc(F)cc2)c(C)c1C1=C(O)C2(CCOCC2)NC1=O` [Cpd of formula (IIb)], the “Efficacy in % after 2 days” value in the assay with Tetranychus urticae [1] (0.5 g ai/ha, mortality) stood at 0%. In addition, the pest or weed control at 0.5 g/ha in the assay with Tetranychus urticae [1] (setting [3]) was found to be 0%.

Consider `CCOC(=O)OC1=C(c2cc(C)ccc2C)C(=O)N[C@]12CC[C@@H](OC)CC2` [Spirotetramat, cis-4-(ethoxycarbonyloxy)-8-methoxy-3-(2,5-xylyl)-1-azaspiro[4.5]dec-3-en-2-one], for which the “Efficacy in % after 14 days” value with Meloidogyne incognita (30 ppm) and in the assay with Meloidogyne incognita (60 ppm) was 0% each time. The “Efficacy in % after 7 days” value in the assay on Tetranychus urticae [2] (2 ppm) is given as 40%. Besides, in the assay with Tetranychus urticae [1] (0.05 g ai/ha, mortality), the “Efficacy in % after 2 days” value is 0%. The pest or weed control at 0.05 g/ha in the assay on Tetranychus urticae [1] (setting [4]) is 0%.

For abamectin, the “Efficacy in % after 3 days” value with Tetranychus urticae [2] (0.01 ppm) worked out at 0%. In the assay on Tetranychus urticae [1] (0.00125 g ai/ha, mortality), the “Efficacy in % after 2 days” value was 0%. For the same compound, the “Efficacy in % after 6 days” value turned out to be 70% with Tetranychus urticae [1] (0.015 g ai/ha, mortality, 6 days) and 70% with Tetranychus urticae [1] (0.03 g ai/ha, mortality, 6 days).

As for spinosad, the “Efficacy in % after 2 days” value in the assay with Tetranychus urticae [1] (0.03125 g ai/ha, mortality) turned out to be 0%. The “Efficacy in % after 6 days” value with Tetranychus urticae [1] (0.03125 g ai/ha, mortality, 6 days) is on record as 0%; in the assay with Tetranychus urticae [1] (0.125 g ai/ha, mortality, 6 days) it was 0%.

On to `COCCOC(=O)C(C#N)(C(=O)c1ccccc1C(F)(F)F)c1ccc(C(C)(C)C)cc1` (racemic) [Cyflumetofen, 2-methoxyethyl (RS)-2-(4-tert-butylphenyl)-2-cyano-3-oxo-3-(α,α,α-trifluoro-o-tolyl)propionate], for which the “Efficacy in % after 2 days” value in the assay with Tetranychus urticae [1] (0.5 g ai/ha, mortality) is given as 0%. The pest or weed control at 0.5 g/ha in the assay with Tetranychus urticae [1] (setting [4]) was found to be 0%.

Take `Cc1cc(Cl)cc(C)c1C1=C(O)C2(CCC3(CC2)OCCO3)NC1=O` [Cpd of formula (IIa)]: in the assay on Myzus persicae (16 g ai/ha), the “Efficacy in % after 6 days” value was 0%. Moreover, the “Efficacy in % after 2 days” value in the assay on Tetranychus urticae [1] (1 g ai/ha, mortality) is 0%. In addition, in the assay on Tetranychus urticae [1] (Tetranychus urticae, foliar, 144 h, 1 g ai/ha, mortality, 6 days, read-out: Efficacy in % after 6 days), the pest or weed control at 1 g/ha is 0%.

For `Cc1cc(C)c(C2=C(OC(=O)CC(C)(C)C)C3(CCCC3)OC2=O)c(C)c1` [Spiromesifen, 3-mesityl-2-oxo-1-oxaspiro[4.4]non-3-en-4-yl 3,3-dimethylbutyrate], in the assay with Tetranychus urticae [1] (0.05 g ai/ha, mortality), the “Efficacy in % after 2 days” value is recorded as 0%. In addition, in the assay on Tetranychus urticae [1] (setting [4]), the pest or weed control at 0.05 g/ha amounted to 0% and the pest or weed control at 0.6 g/ha was found to be 0%.

In the case of `Cc1cc(F)c(N=C2SCC(=O)N2CC(F)(F)F)cc1[S+]([O-])CC(F)(F)F` (centres unmarked) [Cpd of formula (I)], the “Efficacy in % after 6 days” value in the assay on Myzus persicae (2 g ai/ha) and in the assay on Myzus persicae (8 g ai/ha) was 0% in each case. The “Efficacy in % after 14 days” value is given as 0% with Meloidogyne incognita (1 ppm) and 70% with Meloidogyne incognita (2 ppm). Further, the “Efficacy in % after 3 days” value with Tetranychus urticae [2] (0.4 ppm) is reported as 0%. Besides, in the assay with Tetranychus urticae [2] (0.8 ppm), the “Efficacy in % after 7 days” value is recorded as 30%. Further, the “Efficacy in % after 2 days” value in the assay with Tetranychus urticae [1] (0.125 g ai/ha, mortality) worked out at 0%; in the assay on Tetranychus urticae [1] (0.5 g ai/ha, mortality), 0%. In addition, the pest or weed control at 0.125 g/ha in the assay with Tetranychus urticae [1] (Tetranychus urticae, foliar, 144 h, 0.125 g ai/ha, mortality, 6 days, read-out: Efficacy in % after 6 days) is 0%. In the assay with Tetranychus urticae [1] (Tetranychus urticae, foliar, 144 h, 0.3 g ai/ha, mortality, 6 days, read-out: Efficacy in % after 6 days), the pest or weed control at 0.3 g/ha amounted to 0%. In the assay with Tetranychus urticae [1] (setting [3]), the pest or weed control at 0.5 g/ha turned out to be 0%. Further, in the assay with Tetranychus urticae [1] (setting [5]), the pest or weed control at 0.6 g/ha was 0%.

`Cc1nn(C)c(/C(OC(=O)C(C)(C)C)=C(\C#N)c2ccc(C(C)(C)C)cc2)c1C` [Cyenopyrafen, (E)-2-(4-tert-butylphenyl)-2-cyano-1-(1,3,4-trimethylpyrazol-5-yl)vinyl 2,2-dimethylpropionate]: the “Efficacy in % after 6 days” value in the assay with Myzus persicae (0.5 g ai/ha) and with Myzus persicae (2 g ai/ha) was 0% each time. The pest or weed control at 0.125 g/ha in the assay with Tetranychus urticae [1] (setting [4]) was found to be 0%.

As for emamectin benzoate [Emamectin-benzoate], the “Efficacy in % after 2 days” value in the assay on Tetranychus urticae [1] (0.003125 g ai/ha, mortality) came to 0%; with Tetranychus urticae [1] (0.0125 g ai/ha, mortality), 0%. The “Efficacy in % after 6 days” value in the assay on Tetranychus urticae [1] (0.003125 g ai/ha, mortality, 6 days) is on record as 0%; in the assay with Tetranychus urticae [1] (0.0125 g ai/ha, mortality, 6 days), 0%; in the assay with Tetranychus urticae [1] (0.15 g ai/ha, mortality, 6 days), 0%.

For the compound `COC(c1ccc(N(C(=O)c2c(C)nn(C)c2C)C(=O)C(C)C)cc1CC(C)C)(C(F)(F)F)C(F)(F)F` [Pyflubumide, 3′-isobutyl-N-isobutyryl-1,3,5-trimethyl-4′-[2,2,2-trifluoro-1-methoxy-1-(trifluoromethyl)ethyl]pyrazole-4-carboxanilide], in the assay on Tetranychus urticae [1] (0.0125 g ai/ha, mortality), the “Efficacy in % after 2 days” value was found to be 0%. The pest or weed control at 0.0125 g/ha in the assay on Tetranychus urticae [1] (Tetranychus urticae, foliar, 144 h, 0.0125 g ai/ha, mortality, 6 days, read-out: Efficacy in % after 6 days) came to 0%. Also, in the assay on Tetranychus urticae [1] (setting [5]), the pest or weed control at 0.6 g/ha worked out at 70%.

For the origin of these results see US11647750B2, “Active compound combinations having insecticidal/acaricidal properties” (Bayer Aktiengesellschaft, priority 2017, dated 2023).
